Measured values published in patent US20050282757A1, “Peptide boronic acid compounds useful in anticoagulation” (Trigen Limited, priority 2002, published 2005).
In brackets after ≈: the same amount, converted by molar mass. Several values for one entry are separate records, joined by “and”; a condition that tells them apart may be missing. Equal values may be shown once. Entries after “also recorded” stand apart in the source; their conditions may differ.

Key:
thrombin time [1] = test: Intraduodenal absorption in rat, thrombin time (Examples 42 and 44); type: in vivo, male Wistar rats; parameters: Mean increase in thrombin time / Thrombin time increase: unit not given here; conditions: for Group mean thrombin time (s ± sd): 20 mg/kg intraduodenal
Experimental: • Place 10 mg of the relevant compound in an Eppendorf cup • Add 0.5 mL ethanol and shake for 10 minutes • Sonicate for 10 minutes • Add 1.5 mL of buffer • Shake for additional 15 minutes • Resulting target concentration: 5 mg/mL B. Intraduodenal Studies
The intraduodenal studies were performed using male Wistar rats, approximately 8 weeks of age and weighing between 250 and 300 g.
Food was withheld overnight prior to dosing and returned approximately 2 hours post-dose. Water was available ad libitum.
Animals were anaesthetised using gaseous halothane. A small incision was made in the abdomen and the duodenum located. Each animal received a single administration of control or test article by injection directly into the duodenum, using a constant dose volume of 4 mL/kg. Following administration the incision was closed using surgical staples.
Individual dose volumes were based on individual body weights, obtained on the day of dosing. Treatments employed for the study were as follows:
(§1) Approximately 0.6 mL of blood was collected via a tail vein into 3.8% tri sodium citrate tubes approximately 48 hours prior to dosing and again at 0.5, 1, 2, 4 and 8 hours post-dose.
(§2) Plasma was prepared by centrifugation at […] for 10 minutes at 4° C. Plasma was stored frozen (nominally −20° C.) prior to analysis in an automated coagulometer.
The thrombin times determined in example 42 were analysed to determine the standard deviation for increase in thrombin time, expressed as a percentage of the mean value (this is sometimes called the ‘coefficient of variation’).

thrombin time [2] = test: Oral absorption in rat, thrombin time (Example 43); type: in vivo, male Wistar rats; conditions: 20 mg/kg oral gavage
Experimental: The procedure of Example 42 was followed.
The per-oral studies were performed using male Wistar rats, approximately 8 weeks of age and weighing between 250 and 300 g.
Food was withheld overnight prior to dosing and returned approximately 2 hours post-dose. Water was available adlibitum.
Each animal received a single administration of control or test article by oral gavage, using a constant dose volume of 4 mL/kg.
Individual dose volumes were based on individual body weights, obtained on the day of dosing.
as §1, §2

[3] = Hydrolysis under HPLC assay conditions; type: physicochemical; conditions: acid conditions of an HPLC assay / HPLC sample preparation
Excerpt: It has been discovered that TRI 50b tends to hydrolyse.

[4] = Maximum aqueous solubility by UV after shaking in water at 37° C.; type: physicochemical; conditions: read-out: Solubility when dissolved at 50 mg/ml
thrombin time and APTT = test: Oral administration in dog, PK/PD (Example 45)
Experimental: Three female and three male dogs were used for each leg of the study. The weight range of the dogs was 8-18 kg.
The PD was measured as thrombin time and APTT using an automated coagulometer. Plasma concentrations were measured using an LCMS/MS method.
The dose was tailored on an individual basis for each dog.

[5] = Stability in simulated gastric fluid (Example 51); type: in vitro ADME; conditions: 37° C.
Experimental: Approximately 2.5 mg of the compound is dissolved in 50 ml gastric fluid (37° C., according to BP with pepsin, an aliquot is transferred into an HPLC-vial and analysed immediately (time period =0). The aliquots for further time periods in HPLC-vials are stored in an autosampler at 37° C. […]

[6] = individual rats dosed intraduodenally, in s
[7] = gastric juice 0 min, initial set to 100

COCCC[C@H](NC(=O)[C@@H]1CCCN1C(=O)[C@@H](Cc1ccccc1)NC(=O)OCc1ccccc1)B([O-])O.[K+] [Potassium Salt of TRI50C]
Group mean thrombin time (s ± sd) (thrombin time [1]; 0.5 hour): 26.5 ± 3.64 s
Group mean thrombin time (s ± sd) (thrombin time [1]; 1 hour): 24.4 ± 3.35 s
Group mean thrombin time (s ± sd) (thrombin time [1]; 2 hour): 23.2 ± 0.83 s
Group mean thrombin time (s ± sd) (thrombin time [1]; 4 hour): 23.2 ± 2.36 s
Group mean thrombin time (s ± sd) (thrombin time [1]; 8 hour): 21.6 ± 0.70 s
Group mean thrombin time (s ± sd) (thrombin time [1]; −48 hour (pre-dose)): 20.0 ± 1.92 s
Group mean thrombin times (s ± sd) (thrombin time [2]; 0.5 hour): 24.7 ± 2.18 s
Group mean thrombin times (s ± sd) (thrombin time [2]; 1 hour): 24.1 ± 1.87 s
Group mean thrombin times (s ± sd) (thrombin time [2]; 2 hour): 22.9 ± 3.29 s
Group mean thrombin times (s ± sd) (thrombin time [2]; 4 hour): 23.2 ± 1.24 s
Group mean thrombin times (s ± sd) (thrombin time [2]; 8 hour): 23.8 ± 1.79 s
Group mean thrombin times (s ± sd) (thrombin time [2]; −48 hour (pre-dose)): 22.0 ± 1.40 s

COCCC[C@H](NC(=O)[C@@H]1CCCN1C(=O)[C@@H](Cc1ccccc1)NC(=O)OCc1ccccc1)B1OC(C)(C)C(C)(C)O1 [TRI 50b, Cbz-(R)-Phe-Pro-BoroMpg-OPinacol]
stability under HPLC assay conditions [3]: converted to the acid form with a short half life

COCCC[C@H](NC(=O)[C@@H]1CCCN1C(=O)[C@@H](Cc1ccccc1)NC(=O)OCc1ccccc1)B(O)O [TRI 50c, Cbz-(R)-Phe-(S)-Pro-(R)-Mpg-B(OH)2]
solubility [4]: 8 mM (≈ 4200 µg/mL)
Group mean thrombin time (s ± sd) (thrombin time [1]; 0.5 hour): 42.1 ± 19.54 s
Group mean thrombin time (s ± sd) (thrombin time [1]; 1 hour): 27.5 ± 9.42 s
Group mean thrombin time (s ± sd) (thrombin time [1]; 2 hour): 23.5 ± 6.40 s
Group mean thrombin time (s ± sd) (thrombin time [1]; 4 hour): 21.8 ± 2.33 s
Group mean thrombin time (s ± sd) (thrombin time [1]; 8 hour): 21.5 ± 2.67 s
Group mean thrombin time (s ± sd) (thrombin time [1]; −48 hour (pre-dose)): 21.3 ± 2.69 s
Mean increase in thrombin time (thrombin time [1]; 0.5 h minus 0 h, intraduodenal): 20.26
Thrombin time, 0 h (thrombin time [1]; [6]): 23.70 and 23.10 and 16.85 and 21.67
Thrombin time, 0.5 h (thrombin time [1]; [6]): 40.02 and 40.20 and 23.60 and 62.55
Thrombin time increase (thrombin time [1]; individual rats, 0.5 h minus 0 h): 16.32 and 17.10 and 6.75 and 40.88
Group mean thrombin times (s ± sd) (thrombin time [2]; 0.5 hour): 26.8 ± 1.96 s
Group mean thrombin times (s ± sd) (thrombin time [2]; 1 hour): 23.3 ± 3.68 s
Group mean thrombin times (s ± sd) (thrombin time [2]; 2 hour): 23.9 ± 2.25 s
Group mean thrombin times (s ± sd) (thrombin time [2]; 4 hour): 23.1 ± 2.70 s
Group mean thrombin times (s ± sd) (thrombin time [2]; 8 hour): 25.1 ± 0.33 s
Group mean thrombin times (s ± sd) (thrombin time [2]; −48 hour (pre-dose)): 22.9 ± 2.28 s
absorption as estimated by dynamic response (TT) (thrombin time and APTT): Two animals failed to significantly absorb TRI 50c
time of peak thrombin time post dose (thrombin time and APTT): 1.5 h
mean thrombin clotting time at peak (C max) (thrombin time and APTT; base line 15 seconds (calcium salt), 15.4 seconds (TRI 50c)): 34.2 s
tolerance (thrombin time and APTT; enterically coated gelatine capsules): tolerated well with no adverse events; also recorded: well tolerated orally

COCCC[C@H](NC(=O)[C@@H]1CCCN1C(=O)[C@@H](Cc1ccc(F)cc1)NC(=O)OCc1ccccc1)B([O-])O.[Na+] [TRIf monosodium salt]
results, peak at rt 14.5 min [5, 7]: 100.0 peak-area-%
results, peak at rt 17.3 min [5, 7]: 100.0 peak-area-%
results, peak at rt […] [5, 7]: 100.0 peak-area-%
results, peak at rt 14.5 min ([5]; gastric juice 35 min): 89.6 peak-area-%
results, peak at rt 17.3 min ([5]; gastric juice 35 min): 99.1 peak-area-%
results, peak at rt […] ([5]; gastric juice 35 min): 101.4 peak-area-%
results, peak at rt 14.5 min ([5]; gastric juice 70 min): 84.6 peak-area-%
results, peak at rt 17.3 min ([5]; gastric juice 70 min): 101.8 peak-area-%
results, peak at rt […] ([5]; gastric juice 70 min): 101.1 peak-area-%
results, peak at rt 14.5 min ([5]; gastric juice 105 min): 94.2 peak-area-%
results, peak at rt 17.3 min ([5]; gastric juice 105 min): 100.3 peak-area-%
results, peak at rt […] ([5]; gastric juice 105 min): 97.7 peak-area-%
results, peak at rt 14.5 min ([5]; gastric juice 140 min): 93.9 peak-area-%
results, peak at rt 17.3 min ([5]; gastric juice 140 min): 91.4 peak-area-%
results, peak at rt […] ([5]; gastric juice 140 min): 94.6 peak-area-%
results, peak at rt 14.5 min ([5]; gastric juice 175 min): 94.9 peak-area-%
results, peak at rt 17.3 min ([5]; gastric juice 175 min): 97.7 peak-area-%
results, peak at rt […] ([5]; gastric juice 175 min): 98.6 peak-area-%
results, peak at rt 14.5 min ([5]; gastric juice 210 min): 98.1 peak-area-%
results, peak at rt 17.3 min ([5]; gastric juice 210 min): 94.1 peak-area-%
results, peak at rt […] ([5]; gastric juice 210 min): 94.4 peak-area-%
